Laboratory results taken from US8575156B2, “Cyclic inhibitors of 11β-hydroxysteroid dehydrogenase 1” (Vitae Pharmaceuticals, Inc., priority 2007, dated 2013).
Like-named read-outs stand apart in the source and are kept apart here.

Assays:
11β-HSD1 [1] = target: T1, 11β-HSD1 (Homo sapiens, UniProt P28845); settings: for Average % inhibition at 100 nM: 0.1 µM; for IC50: read-out: IC50 Range; for Average % inhibition at 111.1 nM: 111.1 nM compound, 0.1111 µM
11β-HSD1 [2] = target: T1, 11β-HSD1; test: biochemical; settings: for IC50: IC50 Range
[3] = Biological Test Example 1, microsomes from CHO cells overexpressing human 11β-HSD1
[4] = Biological Test Example 1, 100 nM compound
[5] = read-out: Average % inhibition at 100 nM, Biological Test Example 1, 100 nM

T1 sequence (P28845 whole entry): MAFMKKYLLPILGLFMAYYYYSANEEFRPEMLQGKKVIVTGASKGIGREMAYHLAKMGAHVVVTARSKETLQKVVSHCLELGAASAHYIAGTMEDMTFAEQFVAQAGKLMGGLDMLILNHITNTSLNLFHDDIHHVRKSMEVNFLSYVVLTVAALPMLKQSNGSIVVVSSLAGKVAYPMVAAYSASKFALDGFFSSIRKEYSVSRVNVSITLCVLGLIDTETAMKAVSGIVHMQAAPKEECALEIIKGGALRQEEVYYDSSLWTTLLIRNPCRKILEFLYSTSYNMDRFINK

## 3-((S)-1-(2′,4′-difluorobiphenyl-4-yl)ethyl)-6-(2-hydroxyethyl)-6-isopropyl-1,3-oxazinan-2-one [EXAMPLE 207 Isomer 1]
11β-HSD1 [1]
  Average % inhibition at 100 nM: 89.9%
  IC50: < 100 nM

## 3-((S)-1-(2′,4′-difluorobiphenyl-4-yl)ethyl)-6-(2-hydroxyethyl)-6-isopropyl-1,3-oxazinan-2-one [EXAMPLE 207 Isomer 2]
11β-HSD1 [1]
  Average % inhibition at 100 nM: 89.3%
  IC50: < 100 nM

## C[C@@H](c1ccccc1)N1CCC(C)(c2ccccc2)OC1=O (single isomer, unassigned) [EXAMPLE 82 Isomer 2]
11β-HSD1 [1]; Biological Test Example 1
  Average % inhibition at 111.1 nM: 89.2%
11β-HSD1 [1]; [3]
  IC50: < 100 nM

## C[C@H](c1ccccc1)N1CCC(C)(c2ccccc2)OC1=O (single isomer, unassigned) [EXAMPLE 83 Isomer 2]
11β-HSD1 [1]; Biological Test Example 1
  Average % inhibition at 111.1 nM: 45.8%
11β-HSD1 [1]; [3]
  IC50: 100 to 1000 nM

## C=CC1(c2ccc(F)cc2)CCN([C@@H](C)c2ccccc2)C(=O)O1 (single isomer, unassigned) [EXAMPLE 113 Isomer 2]
11β-HSD1 [1]; Biological Test Example 1
  Average % inhibition at 111.1 nM: 82.6%
11β-HSD1 [1]; [3]
  IC50: < 100 nM

## CC(O)C[C@]1(c2ccc(F)cc2)CCN([C@@H](C)c2ccc(-c3ccc(F)cc3F)cc2)C(=O)O1 (single isomer, unassigned) [EXAMPLE 137 Isomer 2]
11β-HSD1 [1]; [3]
  IC50: < 100 nM

## CC(O)C[C@@]1(c2cccs2)CCN([C@@H](C)c2ccc(-c3ccc(F)cc3)cc2)C(=O)O1 (single isomer, unassigned) [EXAMPLE 167 Isomer 2]
11β-HSD1 [1]; Biological Test Example 1
  Average % inhibition at 111.1 nM: 77.2%
11β-HSD1 [1]; [3]
  IC50: < 100 nM

## C[C@@H](c1ccc(-c2ccc(F)cc2)cc1)N1CC[C@](CC(O)CO)(c2ccccc2)OC1=O (single isomer, unassigned) [EXAMPLE 168 Isomer 2]
11β-HSD1 [1]; [4]
  Average % inhibition at 100 nM: 95.6%
11β-HSD1 [1]; [3]
  IC50: < 100 nM

## C[C@@H](c1ccc(-c2ccc(F)cc2F)cc1)N1CCC(CCCO)(c2cccs2)OC1=O (single isomer, unassigned) [EXAMPLE 171 Isomer 2]
11β-HSD1 [1]; [4]
  Average % inhibition at 100 nM: 68.6%
11β-HSD1 [1]; [3]
  IC50: < 100 nM

## C[C@@H](c1ccc(-c2ccc(F)cc2F)cc1)N1CC[C@](CC(O)CO)(c2ccccc2)OC1=O (single isomer, unassigned) [EXAMPLE 173 Isomer 2]
11β-HSD1 [1]; [4]
  Average % inhibition at 100 nM: 94.5%
11β-HSD1 [1]; [3]
  IC50: < 100 nM

## CC(C)C1(CCCO)CCN([C@@H](C)c2ccc(Cl)cc2)C(=O)O1 (single isomer, unassigned) [EXAMPLE 187 Isomer 2]
11β-HSD1 [1]
  Average % inhibition at 100 nM: 46.4%
11β-HSD1 [1]; [3]
  IC50: < 100 nM

## C=CCC1(c2ccc(F)cc2)CCN([C@@H](C)c2ccc(C)cc2)C(=O)O1 (single isomer, unassigned) [EXAMPLE 189 Isomer 2]
11β-HSD1 [1]; [4]
  Average % inhibition at 100 nM: 90.1%
11β-HSD1 [1]; [3]
  IC50: < 100 nM

## C=CCC1(c2ccc(F)cc2)CCN([C@@H](C)c2ccc(OC)cc2)C(=O)O1 (single isomer, unassigned) [EXAMPLE 193 Isomer 2]
11β-HSD1 [1]; [3]
  IC50: < 100 nM

## C=CCC1(c2ccc(F)cc2)CCN([C@@H](C)c2ccc(Cl)cc2)C(=O)O1 (single isomer, unassigned) [EXAMPLE 196 Isomer 2]
11β-HSD1 [1]; [4]
  Average % inhibition at 100 nM: 98.9%
11β-HSD1 [1]; [3]
  IC50: < 100 nM

## C[C@@H](C1CCCCC1)N1CC[C@](CC(O)CO)(c2ccc(F)cc2)OC1=O (single isomer, unassigned) [EXAMPLE 197 Isomer 2]
11β-HSD1 [1]; [4]
  Average % inhibition at 100 nM: 82.1%
11β-HSD1 [1]; [3]
  IC50: < 100 nM

## CC(C)C1(CCCO)CCN([C@@H](C)c2ccc(Br)cc2)C(=O)O1 (single isomer, unassigned) [EXAMPLE 200 Isomer 2]
11β-HSD1 [1]; [3]
  IC50: < 100 nM

## CC(O)C[C@]1(c2ccc(F)cc2)CCN([C@@H](C)c2ccc(Cl)cc2)C(=O)O1 (single isomer, unassigned) [EXAMPLE 203 Isomer 2]
11β-HSD1 [1]; [4]
  Average % inhibition at 100 nM: 93.8%
11β-HSD1 [1]; [3]
  IC50: < 100 nM

## COc1ccc([C@H](C)N2CC[C@](CC(O)CO)(c3ccc(F)cc3)OC2=O)cc1 (single isomer, unassigned) [EXAMPLE 206 Isomer 2]
11β-HSD1 [1]; [4]
  Average % inhibition at 100 nM: 85.9%
11β-HSD1 [1]; [3]
  IC50: < 100 nM

## CC(C)C1(CCCO)CCN([C@@H](C)c2ccc(-c3ccc(F)cc3F)cc2)C(=O)O1 (single isomer, unassigned) [EXAMPLE 212 Isomer 2]
11β-HSD1 [1]; [4]
  Average % inhibition at 100 nM: 82.6%
11β-HSD1 [1]; [3]
  IC50: < 100 nM

## CC(O)C[C@]1(c2ccccc2)CCN([C@@H](C)c2ccc(-c3ccc(F)cc3)cc2)C(=O)O1 (single isomer, unassigned) [EXAMPLE 224 Isomer 2]
11β-HSD1 [1]; [4]
  Average % inhibition at 100 nM: 95.6%
11β-HSD1 [1]; [3]
  IC50: < 100 nM

## C[C@@H](c1ccc(Br)cc1)N1CCC(CCCO)(c2ccc(F)cc2)OC1=O (single isomer, unassigned) [EXAMPLE 227 Isomer 2]
11β-HSD1 [1]; [3]
  IC50: < 100 nM

## C[C@@H](c1ccc(-c2ccc(F)cc2F)cc1)N1CCC(CCO)(c2cccs2)OC1=O (single isomer, unassigned) [EXAMPLE 233 Isomer 2]
11β-HSD1 [1]; [4]
  Average % inhibition at 100 nM: 64.1%
11β-HSD1 [1]; [3]
  IC50: < 100 nM

## CC[C@@H](c1ccc(Br)cc1)N1CC[C@](CC(O)CO)(c2ccccc2)OC1=O (single isomer, unassigned) [EXAMPLE 239 Isomer 2]
11β-HSD1 [1]; [4]
  Average % inhibition at 100 nM: 89.5%
11β-HSD1 [1]; [3]
  IC50: < 100 nM

## CC[C@@H](c1ccc(Br)cc1)N1CC[C@](CC(O)CO)(c2ccc(F)cc2)OC1=O (single isomer, unassigned) [EXAMPLE 255 Isomer 2]
11β-HSD1 [1]; [4]
  Average % inhibition at 100 nM: 89.3%
11β-HSD1 [1]; [3]
  IC50: < 100 nM

## C[C@@H](c1ccc(-c2ccc(F)cc2)cc1)N1CC[C@](CC(O)CNS(C)(=O)=O)(c2ccc(F)cc2)OC1=O (single isomer, unassigned) [EXAMPLE 277 Isomer 2]
11β-HSD1 [1]
  Average % inhibition at 100 nM: 65.6%
  IC50: < 100 nM

## C[C@@H](c1ccc(-c2ccc(F)cc2)cc1)N1CC[C@](CC(O)CN(C)S(C)(=O)=O)(c2ccc(F)cc2)OC1=O (single isomer, unassigned) [EXAMPLE 278 Isomer 2]
11β-HSD1 [1]; [4]
  Average % inhibition at 100 nM: 65.5%
11β-HSD1 [1]; [3]
  IC50: < 100 nM

## C[C@@H](c1ccc(Br)cc1)N1CC[C@](CC(C)(C)CNS(C)(=O)=O)(c2ccc(F)cc2)OC1=O [EXAMPLE 608, N-(3-((R)-3-((S)-1-(4-bromophenyl)ethyl)-6-(4-fluorophenyl)-2-oxo-1,3-oxazinan-6-yl)-2,2-dimethylpropyl)methanesulfonamide]
11β-HSD1 [2]; [3]
  IC50: < 100 nM
11β-HSD1 [2]; [5]
  inhibition at 0.1 µM: 84.7%

## CCOC(=O)NCC[C@]1(c2ccc(F)cc2)CCN([C@@H](C)c2ccc(Br)cc2)C(=O)O1 [EXAMPLE 620, ethyl 2-((R)-3-((S)-1-(4-bromophenyl)ethyl)-6-(4-fluorophenyl)-2-oxo-1,3-oxazinan-6-yl)ethylcarbamate]
11β-HSD1 [2]; [3]
  IC50: < 100 nM
11β-HSD1 [2]; [5]
  inhibition at 0.1 µM: 68.7%

## C[C@@H](c1ccc(Br)cc1)N1CC[C@](CC(C)(C)N)(c2ccc(F)cc2)OC1=O [EXAMPLE 621, (S)-6-(2-amino-2-methylpropyl)-3-((S)-1-(4-bromophenyl)ethyl)-6-(4-fluorophenyl)-1,3-oxazinan-2-one]
11β-HSD1 [2]; [3]
  IC50: < 100 nM
11β-HSD1 [2]; [5]
  inhibition at 0.1 µM: 78.3%

## CC(=O)NC(C)(C)C[C@]1(c2ccc(F)cc2)CCN([C@@H](C)c2ccc(Br)cc2)C(=O)O1 [EXAMPLE 626, N-(1-((S)-3-((S)-1-(4-bromophenyl)ethyl)-6-(4-fluorophenyl)-2-oxo-1,3-oxazinan-6-yl)-2-methylpropan-2-yl)acetamide]
11β-HSD1 [2]; [3]
  IC50: < 100 nM
11β-HSD1 [2]; [5]
  inhibition at 0.1 µM: 94.8%

## C[C@@H](c1ccc(Br)cc1)N1CC[C@](CC(C)(C)NC(=O)C(C)(C)C)(c2ccccc2)OC1=O [EXAMPLE 693, N-(1-((S)-3-((S)-1-(4-bromophenyl)ethyl)-2-oxo-6-phenyl-1,3-oxazinan-6-yl)-2-methylpropan-2-yl)pivalamide]
11β-HSD1 [2]; microsomes from CHO cells overexpressing human 11β-HSD1
  IC50: > 100 nM
11β-HSD1 [2]; read-out: Average % inhibition at 100 nM, 100 nM compound, microsomes from CHO cells overexpressing human 11β-HSD1
  inhibition at 0.1 µM: 17.6%
